Paper PMC4853715, “Design, Synthesis and Antitumor Activity of Novel link-bridge and B-Ring Modified Combretastatin A-4 (CA-4) Analogues as Potent Antitubulin Agents” (Scientific Reports, 2016)

How the values were obtained:
HT-29 = assay: MTT assay, antiproliferative activity; format: cell-based; conditions: Homo sapiens; HT-29, MTT, 48 h, ± SD
Protocol: (§1) The in vitro anticancer activities of the prepared compounds against HepG2, Hela, MCF-7, A549, HT-29 and SSC-4 cell lines were evaluated as described in the literature. Target tumor cells were grown to log phase in DMEM medium supplemented with 10% fetal bovine serum. After reaching a dilution of 1 × 10^5 cells Ml^−1 with the medium, 100 μL of the obtained cell suspension was added to each well of 96-well culture plates. Subsequently, incubation was performed at 37 °C in 5% CO2 atmosphere for 12 h before the cytotoxicity assessment. Tested samples at preset concentrations were added to 6 wells with CA-4 being employed as a positive reference. After 48 h exposure period, 25 μL of PBS containing 2.5 mg mL^−1 of MTT (Sigma, USA) was added to each well. After 4 h, the medium was replaced by 150 μL DMSO to dissolve the purple formazan crystals produced. The absorbance at 570 nm of each well was measured with Synergy™ 2 Multi-Mode Microplate Reader. Cell viability (%) was calculated using the following equation: cell viability (%) = (Atreatment/Acontrol) × 100%. The data represented the mean of three independent experiments in triplicate and were expressed as means ± SD.

SSC-4 = assay: MTT assay, antiproliferative activity; format: cell-based; conditions: Homo sapiens; SSC-4, MTT, 48 h, ± SD
Protocol: as §1

A549 = assay: MTT assay, antiproliferative activity; format: cell-based; conditions: Homo sapiens, 48 h, ± SD
Protocol: as §1

MCF-7 = assay: MTT assay, antiproliferative activity; format: cell-based; conditions: Homo sapiens, MCF7; MCF-7, MTT, 48 h, ± SD
Protocol: as §1

HepG2 = assay: MTT assay, antiproliferative activity; format: cell-based; conditions: Homo sapiens, 48 h, ± SD
Protocol: as §1

Hela = assay: MTT assay, antiproliferative activity; format: cell-based; conditions: Homo sapiens, 48 h, ± SD
Protocol: as §1

[1] = test system: Tubulin isolated from porcine brain tissue; assay: Tubulin polymerization assay (kit, absorbance 340 nm); format: biochemical; conditions: 8.0 μM, 37 °C
Protocol: Tubulin polymerization was determined with the tubulin polymerization assay kit (Cytoskeleton, Denver, CO which was purchased from Cytoskeleton, Beyotime, China. Tubulin isolated from porcine brain tissue was used in this commercial kit.) It is based on the principal that light is scattered by microtubules to an extent that is proportional to the concentration of the microtubule polymer. Compounds that interact with tubulin will alter the polymerization of tubulin, and this can be detected using a spectrophotometer. Tubulin polymerization dynamics was monitored through measuring the change of absorbance at 340 nm every 2 min for 30 min at 37 °C on a spectrophotometer (Perkin-Elmer).

[2] = target: colchicine-binding site of tubulin; assay: [3H] Colchicine-tubulin binding assay; conditions: 37 °C, 60 min; read-out: IC50, competition with [3H]colchicine binding to tubulin
Protocol: One micromolar radiolabeled colchicine [ring C, Methoxy-^3H] (Perkin-Elmer), 1% DMSO and various concentrations of test compounds in 50 μL G-PEM buffer containing 80 mmol/L PIPES (pH 6.8), 1 mmol/L EGTA, 1 mmol/L MgCl2 and 1 mmol/L GTP, and 5% glycerol were incubated with […] (>99% pure,; Cytoskeleton, Inc.; 0.2 mg/mL) at 37 °C for 60 min. The binding solutions were filtered through a stack of 2 DEAE-cellulose filters and washed twice. The radioactivity in the filtrates was determined by liquid scintillation spectrometry (Perkin-Elmer Wallac). Nonlinear regression was used to analyze the data using GraphPad Prism.

[3] = test system: polymerized tubulin in A549 cells; assay: Flow cytometry of extracellular polymerized tubulin; format: cell-based, human; conditions: A549, 1 μM, 48 h
Protocol: Then, cells were harvested, washed once with PBS and blocked with 1% BSA for 30 min on ice, then were centrifuged (2800 rpm at 4 °C for 5 minutes) to remove supernatant. After that, cells were incubated with β-tubulin antibody (AT819, Beyotime, China) for 1 h on ice and were centrifuged (2800 rpm at 4 °C for 5 minutes) to remove supernatant. Next, cells were incubated with CY5.5-linked anti-rabbit IgG (A7016, Beyotime, China) on ice for 1 h and were also centrifuged (2800 rpm at 4 °C for 5 minutes) to remove supernatant. Finally, cells were then resuspended in PBS and the expression level of polymerized tubulin was analysed by flow cytometry (BD, USA).

Bovine brain tubulin = assay: Effects on tubulin polymerization (turbidimetric assembly); format: biochemical; conditions: 10 μM tubulin, 30 °C, 20 min incubation; read-out: Tubulin inhibition IC50
Protocol: Bovine brain tubulin was purified as described previously. To evaluate the effect of the compounds on tubulin assembly in vitro, compounds of varying concentrations were preincubated with 10 μM tubulin in glutamate buffer at 30 °C and then cooled to 0 °C. After addition of GTP, the mixtures were transferred to 0 °C cuvettes in a recording BioTek Synergy 4 multifunction microplate spectrophotometer and warmed up to 30 °C and the assembly of tubulin was observed turbidimetrically (TU660, USA).

[4] = test system: interphase microtubules of A549 cells; assay: Confocal microscopy assay of microtubule morphology; format: cell-based, human; conditions: A549, 1.0 μM, 48 h
Protocol: After incubating for 48 h, A549 cells were washed with PBS for three times and fixed with 4% paraformaldehyde for 20 min, permeabilized with cold methanol for another 10 min. After that, the cells were blocked with 5% BSA for 1 h. Subsequently, the cells were washed with PBS, and incubated with anti-tubulin antibody in 3% BSA (1:200 Cytoskeleton, Inc.) overnight at 4 °C. After being washed with PBS for three times, each cover slip was added 200 μL of Cy3-labeled goat anti-mouse IgG (H + L) in 3% BSA (1:500, Cytoskeleton, Inc.) and incubated for 1 h at room temperature. At last, A549 cells was stained with 200 μL of DAPI for 5 min and observed under an confocal microscope (Olympus, USA).

A549 xenograft tumor = assay: In vivo anti-tumor activity, A549 xenograft; design: species or system BALB/c nude mice; conditions: CA-4P group, 30 mg/kg or 15 mg/kg
Protocol: Mice were subcutaneously inoculated with injections of 5.0 × 10^6 cells/nude mice. After 12–14 days, tumor sizes were determined using micrometer calipers, and then nude mice with similar tumor volume (~100 mm^3, eliminate mice with tumors that are too large or too small) were randomly divided them into four groups (with six nude mice/group). […] Both drugs, as well as the vehicle control, were administered every other day for the entire period of observation.
Male BALB/c nude mice, five weeks old and weighing 18–22 g, were supplied by Shanghai Laboratory Animal Limited Company. The mice were raised in air-conditioned rooms under controlled lighting (12 h light-dark cycle at 24 °C) and were fed with standard laboratory food and water ad libitum. Before injection into the mice, the A549 cells were harvested by trypsinization and washed three times with cold serum-free medium and then injected in a total volume of 0.1 mL using a 1 mL latex-free syringe (BD) within 30 min of harvest. Mice were inoculated subcutaneously with A549 cells (5.0 × 10^6) on their shoulders. […] The control group received 0.9% normal saline. Tumor size was measured once every 2 days in two per-pendicular dimensions with Vernier calipers and converted to tumor volume (TV) using the formula: (ab^2)/2, where a and b refer to the longer and shorter dimensions, respectively. The body weight of the animals was measured twice a week to assess toxicity of the treatments at the same time as the tumor dimension measurement and the mortality was monitored daily. After the treatments for eight weeks, the animals were euthanized by cervical dislocation. This study conformed to the Guide for the Care and Use of Laboratory Animals as published by the US National Institutes of Health and was approved by the Institutional Ethics Review Board of Nanjing University.

| Compound | IC50 (HT-29) | IC50 (SSC-4) | IC50 (A549) | IC50 (MCF-7) | IC50 (HepG2) | IC50 (Hela) | tubulin polymerization (in words) [1] | IC50 [2] | microtubule assembly (polymerized tubulin, curve shift versus control) [3] | IC50 (Bovine brain tubulin) | microtubule morphology [4] | tumor growth reduction versus vehicle at end of observation (A549 xenograft tumor; every other day) | average weight of the excised tumors (A549 xenograft tumor; control group 1.802 g) |
| --- | --- | --- | --- | --- | --- | --- | --- | --- | --- | --- | --- | --- | --- |
| COc1ccc(/C=C\c2cc(OC)c(OC)c(OC)c2)cc1O [CA-4, combretastatin A-4] | 15.6 ± 0.06 µM | 27.2 ± 1.78 µM | 0.13 ± 0.02 µM | 0.81 ± 0.11 µM | 0.46 ± 0.07 µM | 5.52 ± 0.82 µM | nearly completely blocked | 4.96 µM | […] | […] | disorganized interphase microtubules | – | – |
| COc1ccc(/C=C\c2cc(OC)c(OC)c(OC)c2)cc1OP(=O)(O)O [CA-4P, fosbretabulin, reference compound] | – | – | – | – | – | – | – | – | – | – | – | 39% | 1.102 g |
| COc1cc(/C=N/NC(=O)c2cn(C)c3ccccc23)cc(OC)c1OC [Compound 4] | 26.7 ± 1.89 µM | 43.2 ± 3.98 µM | 0.29 ± 0.04 µM | 3.21 ± 0.76 µM | 2.43 ± 0.23 µM | 8.45 ± 1.87 µM | – | – | – | 14.8 µM | – | – | – |
| CCn1cc(C(=O)N/N=C/c2cc(OC)c(OC)c(OC)c2)c2ccccc21 [Compound 5] | 56.8 ± 2.1 µM | 55.2 ± 3.48 µM | 1.18 ± 0.11 µM | 14.2 ± 1.11 µM | 10.6 ± 1.98 µM | 23.8 ± 2.23 µM | – | – | – | 23.4 µM | – | – | – |
| CCCn1cc(C(=O)N/N=C/c2cc(OC)c(OC)c(OC)c2)c2ccccc21 [Compound 6] | 70 ± 3.76 µM | 79.9 ± 2.78 µM | 9.89 ± 1.16 µM | 28.9 ± 3.23 µM | 39 ± 3.23 µM | 56.9 ± 4.89 µM | – | – | – | 55.7 µM | – | – | – |
| COc1cc(C(=O)/C=C\c2cn(C)c3ccccc23)cc(OC)c1OC [Compound 10] | 44.5 ± 2.87 µM | 43.2 ± 3.3 µM | 12.1 ± 1.2 µM | 29.9 ± 3.21 µM | 19.6 ± 1.98 µM | 23.9 ± 5.89 µM | – | – | – | 49.9 µM | – | – | – |
| CCn1cc(/C=C\C(=O)c2cc(OC)c(OC)c(OC)c2)c2ccccc21 [Compound 11] | 49.9 ± 6.98 µM | 57.8 ± 4.67 µM | 27.9 ± 6.71 µM | 45.5 ± 5.67 µM | 27.8 ± 2.23 µM | 34.2 ± 1.19 µM | – | – | – | 125 µM | – | – | – |
| CCCn1cc(/C=C\C(=O)c2cc(OC)c(OC)c(OC)c2)c2ccccc21 [Compound 12] | 78.9 ± 3.51 µM | 90 ± 9.98 µM | 37.9 ± 3.61 µM | 69.8 ± 5.43 µM | 53.9 ± 2.81 µM | 67.9 ± 4.47 µM | – | – | – | > 200 µM | – | – | – |
| COc1cc(C(=O)/C=C\c2cn(Cc3ccccc3)c3ccccc23)cc(OC)c1OC [Compound 13] | 34.7 ± 5.34 µM | 25.7 ± 2.78 µM | 2.78 ± 0.92 µM | 4.54 ± 0.96 µM | 2.98 ± 0.34 µM | 4.78 ± 1.43 µM | – | – | – | 24.8 µM | – | – | – |
| COc1cc(NC(=O)c2cn(C)c3ccccc23)cc(OC)c1OC [Compound 16] | 46.4 ± 2.83 µM | 45.5 ± 2.6 µM | 17.6 ± 1.9 µM | 27.4 ± 2.41 µM | 17.5 ± 1.46 µM | 26.8 ± 6.81 µM | – | – | – | 46.8 µM | – | – | – |
| CCn1cc(C(=O)Nc2cc(OC)c(OC)c(OC)c2)c2ccccc21 [Compound 17] | 39.4 ± 3.45 µM | 47.2 ± 4.33 µM | 26.5 ± 6.2 µM | 48.3 ± 6.58 µM | 28.3 ± 3.33 µM | 35.7 ± 2.34 µM | – | – | – | > 200 µM | – | – | – |
| CCCn1cc(C(=O)Nc2cc(OC)c(OC)c(OC)c2)c2ccccc21 [Compound 18] | 82.2 ± 3.7 µM | 90.3 ± 6.76 µM | 40.2 ± 4.41 µM | 59.8 ± 3.43 µM | 62.8 ± 3.65 µM | 77.4 ± 5.78 µM | – | – | – | > 200 µM | – | – | – |
| COc1cc(NC(=O)c2cn(Cc3ccccc3)c3ccccc23)cc(OC)c1OC [Compound 19] | 32.7 ± 3.31 µM | 29.5 ± 3.42 µM | 2.69 ± 0.4 µM | 3.61 ± 0.46 µM | 3.68 ± 0.36 µM | 5.74 ± 1.06 µM | – | – | – | 19.9 µM | – | – | – |
| COc1cc2c(c(OC)c1OC)-c1ccc(OC)c(=O)cc1[C@@H](NC(C)=O)CC2 [colchicine] | – | – | – | – | – | – | – | – | – | – | depolymerization and solubilization | – | – |
| CC(=O)O[C@H]1C(=O)[C@@]2(C)[C@H]([C@H](OC(=O)c3ccccc3)[C@]3(O)C[C@H](OC(=O)[C@H](O)[C@@H](NC(=O)c4ccccc4)c4ccccc4)C(C)=C1C3(C)C)[C@]1(OC(C)=O)CO[C@@H]1C[C@@H]2O [paclitaxel] | – | – | – | – | – | – | – | – | – | – | substantial stabilization of microtubules | – | – |
